Columns and labels:
Format in all cases: cell-based
B16F1 melanoma cells = assay: mitochondrial membrane potential (Mitotracker Red) of B16F1 melanoma cells; settings: 48 hours, FIG. 20
Method: Metabolic Activity Assay. Cells were prepared as previously described. The specific metabolic dye was added and mixed into the cell suspension. This plate was then placed into the 37° incubator for a 20-minute incubation. After incubation, the cells were centrifuged at 300×g for 5 minutes, and the supernatant was removed. The cells were then washed once with PBS/2.5% FBS and transferred into flow cytometric tubes containing 500 μL of PBS/2.5% FBS for analysis
MitoTracker Red CM-H2XROS (Molecular Probes). One vial of MitoTracker Red provides 10 tests and contains 50 μg. This is unstable and can't be stored. Therefore, when each vial was opened, 43 μL of Dimethysulfoxide (DMSO) were added. […]
Geometric Mean Fluorescence. […] Once the stained sample was plotted against the control (isotype or unstained), geometric mean fluorescence values were obtained for both histogram peaks. The stained control sample value was subtracted from sample to identify the actual fluorescence of the stained sample over that of the control.
B16F1 melanoma cells of Example 12 were untreated or treated with etomoxir at the indicated concentrations for 48 hours. Cells were harvested, stained with Mitotracker Red (Molecular Probes) as described in Materials and Methods, and analyzed by flow cytometry. The value of Mitotracker Red was then calculated as described in Materials and Methods. […]

[1] = tested on: cell surface Fas (CD95) on B16F1 melanoma cells; assay: cell surface Fas (CD95) expression on B16F1 melanoma cells; settings: 48 hours
Method: Cell Surface Staining. Non-permeabilized cells were stained with antibodies to the cell surface receptors Fas (CD95) (Pharmingen) or with antibodies to uncoupling proteins (anti-UCP2 antibody) (Alpha Diagnostic International). Antibodies for both the isotype control and actual stain were added to the cell suspension, mixed, and then placed on ice for and incubation of 25 minutes in the dark. Subsequently the cells were centrifuged at 300×g for 5 minutes and the supernatant removed. The cells were washed one time with 100 μL of PBS/2.5% FBS and then transferred into flow cytometric tubes containing 500 μL of PBS/2.5% FBS for analysis.
B16F1 melanoma cells were cultured at a concentration of 0.5 to 1 million cells per ml. Cells were harvested and analyzed by flow cytometry. Dot plots are shown in FIG. 15 as functions of live versus dead cells. Each dot on the dot plot represents one cell. Five thousand cells were assessed for forward scatter (FS), as a function of cell size, versus side scatter (SS), as a function of cellular granularity. […]
Referring to FIGS. 17 and 18, B16F1 melanoma cells of Example 12 were untreated or treated with etomoxir at the indicated concentrations for 48 hours. Cells were harvested, stained with fluorochrome conjugated anti-Fas antibody (Pharmingen) and analyzed by flow cytometry.

[2] = tested on: cell-surface Fas on drug sensitive L1210 cells; assay: cell-surface Fas expression on L1210 cells by flow cytometry
Method: Flow Cytometry. Cells were harvested, counted, and resuspended at 10^6 cells/100 μl of PBS containing 2.5% fetal calf serum in preparation for flow cytometric analysis. Cells were stained for intracellular H202 using 6-carboxy-2′,7′-dichlorodihydrofluorescein diacetate (DCF-DA, Molecular Probes, Eugene, Oreg.). Briefly, cells were incubated at 37° with 1 mM DCF-DA for 20 minutes, washed twice in PBS containing 2.5% fetal calf serum and analyzed flow cytometrically. Mitochondrial membrane potential was assessed using Mitotracker Red (CM-H2XROS, Molecular Probes, Eugene, Oreg.). […] The cells were incubated at 37° for 20 minutes, washed twice in PBS containing 2.5% fetal calf serum and analyzed flow cytometrically. Data were acquired on a Coulter Elite Epics or Excel flow cytometer (Coulter, Hialeah, Fla.) and analyzed with CellQuest software, (Becton Dickinson, San Jose, Calif.). […] Each sample population was classified for cell size (forward scatter) and complexity (side scatter), gated on a population of interest and evaluated using 5,000 cells. […]
Drug sensitive L1210 cells and drug resistant L1210/DDP cells were cultured with etomoxir for 24 hours (Tx indicates treatment with etomoxir). The level of cell-surface Fas was determined using fluorochrome conjugated anti-Fas antibodies and flow cytometry. The Fas levels are measured relative to a control for staining artifacts. […]

For `CCOC(=O)C1(CCCCCCOc2ccc(Cl)cc2)CO1` (centres unmarked) [etomoxir, 2-(6-(4-chlorophenoxy)-hexyl)-oxirane-2-carboxylic acid ethyl ester], the “mitochondrial membrane potential as measured by Mitotracker Red” value (B16F1 melanoma cells) was “increase”, the “cell surface Fas expression, live cell population” value ([1]; FIG. 17) was “dose dependent increase” and the “cell surface Fas expression, dead cell population” value ([1]; FIG. 18) was “dose dependent increase”. The “cell surface Fas” value ([2]; cultured with etomoxir for 24 hours, FIG. 7) was “significant increases” and the “methotrexate-induced increases in Fas” value ([2]; etomoxir with methotrexate, FIG. 8) was “increases”.

From patent publication US8071645B2, “Systems and methods for treating human inflammatory and proliferative diseases and wounds, with fatty acid metabolism inhibitors and/or glycolytic inhibitors” (The Regents of the University of Colorado, priority 2003, dated 2011)
